From ChEMBL document CHEMBL1128601, “Development of a novel series of trialkoxyaryl derivatives as specific and competitive antagonists of platelet activating factor” (J Med Chem, 1995)

Legend:
[1] = system: Platelet-activating factor receptor (Oryctolagus cuniculus); experiment: Competitive inhibition of PAF-induced platelet aggregation was measured as IC50 ratio is (1000 x the IC50 of the test compound divided by the IC50 of a standard)
[2] = species: Oryctolagus cuniculus; experiment: Activity against adenosine diphosphate (ADP) induced platelet aggregation
[3] = species: Oryctolagus cuniculus; experiment: Competitive inhibition of PAF-induced platelet aggregation was measured as IC50 ratio = [1000 x the IC50 of the test compound divided by the IC50 of a standard (3)]; format: functional
[4] = species: Oryctolagus cuniculus; experiment: Activity against U-46,619 induced platelet aggregation; no effect at 20 uM; format: functional

IC50 ratio [1] | IC50 [2] | IC50 ratio [3] | IC50 [4] | SMILES
115 | Not Active |  |  | CCCCCCOc1c(OC)cc(C(=O)OCCCC[N+](CC)(CC)CC)cc1OC.[I-]
7000 | Not Active |  |  | CCCCCCOc1c(OC)cc(C(=O)OCCC[N+](C)(C)C)cc1OC.[I-]
164 | Not Active |  |  | CCCCCCOc1c(OC)cc(C(=O)OCCCC[N+](C)(C)C)cc1OC.[I-]
200 | Not Active |  |  | CCCCCCOc1c(OC)cc(C=CCCCC[N+](C)(C)C)cc1OC.[I-]
 |  | 15000 |  | COc1cc(C(=O)OCC[N+](C)(C)C)cc(OC)c1OC.[I-]
443 |  |  | Not Active | COc1cc(C(=O)OCCCC[N+](C)(C)C)cc(OC)c1OCC1CCCCC1.[I-]
48 |  |  |  | CCCCCCOc1c(OC)cc(C(=O)OCCCC[n+]2ccsc2)cc1OC
57.3 | Not Active |  |  | CCCCCCOc1c(OC)cc(C(=O)OCCCC[n+]2cccc3ccccc32)cc1OC.[Cl-]
820 |  |  |  | CCCCCCOc1c(OC)cc(CC(=O)OCCC[N+](C)(C)C)cc1OC
144 |  |  |  | CCCCCCOc1c(OC)cc(C(=O)OCc2ccccc2C[N+](C)(C)C)cc1OC
116 |  |  |  | CCCCCCOc1c(OC)cc(C(=O)OCCc2scnc2C)cc1OC
533 | Not Active |  |  | COc1cc(C(=O)OCCCC[N+](C)(C)C)cc(OC)c1OCc1ccccc1.[I-]
133 | Not Active |  |  | CCCCCCOc1c(OC)cc(/C=C/CCCC[N+](C)(C)C)cc1OC.[I-]
107 | Not Active |  |  | CCCCCCOc1c(OC)cc(C(=O)OCCCC[n+]2ccccc2)cc1OC.[I-]
833 | Not Active |  |  | CCCCCCOc1c(OC)cc(OC(=O)CCCC[N+](C)(C)C)cc1OC.[I-]
114 | Not Active |  |  | CCCCCCOc1c(OC)cc(C(=O)OCCc2sc[n+](C)c2C)cc1OC.[I-]
11.7 | Not Active |  |  | CCCCCCOc1c(OC)cc(C(=O)Oc2cccc3ccc[n+](C)c23)cc1OC.[I-]
3370 | Not Active |  |  | CCCCOc1c(OC)cc(C(=O)OCC[N+](C)(C)C)cc1OC.[I-]

IC50 ratio [1] | IC50 [2] | IC50 ratio [3] | IC50 [4] | SMILES
13 |  |  |  | CCCCCCOc1c(OC)cc(C(=O)Oc2ccc3c(ccc[n+]3C)c2)cc1OC
507 |  |  |  | CCCCCCOc1c(OC)cc(C(=O)Oc2ccccc2CC[N+](C)(C)C)cc1OC
1400 |  |  |  | CCCCCCOc1ccc(C(=O)OCCCC[N+](C)(C)C)cc1
1740 | Not Active |  |  | CCCCCCOc1ccc(C(=O)OCCCC[N+](C)(C)C)cc1OC.[I-]
540 | Not Active |  |  | CCCCCOc1c(OC)cc(C(=O)OCCCC[N+](C)(C)C)cc1OC.[I-]
65 |  |  |  | CCCCCCOc1c(OC)cc(CCCCCC[N+](C)(C)C)cc1OC
270 |  |  |  | CCCCCCOc1c(OC)cc(C(=O)OCCCCCC[N+](C)(C)C)cc1OC
199 | Not Active |  |  | CCCCCCCOc1c(OC)cc(C(=O)OCCCC[N+](C)(C)C)cc1OC.[I-]
1000 | Not Active |  |  | CCCCCCOc1c(OC)cc(C(=O)OCC[N+](C)(C)C)cc1OC.[I-]
263 |  |  |  | CCCCCCOc1c(Cl)cc(C(=O)OCCCC[N+](C)(C)C)cc1OC
14.7 |  |  |  | CCCCCCOc1c(OC)cc(CCCCc2scnc2C)cc1OC
203 |  |  |  | COc1cc(C(=O)OCCCC[N+](C)(C)C)cc(OC)c1OCCC1CCCC1
35 |  |  |  | CCCCCCCCCCCCCCCCOc1c(OC)cc(C(=O)OCCCC[N+](C)(C)C)cc1OC
265 |  |  |  | CCCCCCOc1c(C)cc(C(=O)OCCCC[N+](C)(C)C)cc1C
103 |  |  |  | CCCCCCCCOc1c(OC)cc(C(=O)OCCCC[N+](C)(C)C)cc1OC
153 |  |  |  | CCCCCCCCCCOc1c(OC)cc(C(=O)OCC[N+](C)(C)C)cc1OC
1500 | Not Active |  |  | CCCCCCOc1c(OC)cc(C(=O)OCCCCN(C)C)cc1OC
